According to patent US8084497B2, “C-(2-phenyl-cyclohexyl)-methylamine compounds for therapy of fibromyalgia” (Gruenenthal GmbH, priority 2003, dated 2011):
pKi: −log10 of the molar value. Where a name gives a salt, the structure may show the parent alone. Marks after values point to notes of the source that are not given here.

Assays:
5-HT reuptake = biological target: T1, 5-HT reuptake (Rattus norvegicus, UniProt P31652); assay: 5-HT reuptake inhibition in rat brain synaptosomes (medulla+pons); type: biochemical
T1 construct: synaptosomes are freshly isolated from areas of the rat brain; from tissue; host or cells: P2 synaptosome fraction from the medulla+pons region of male rat brain
T1 sequence (P31652 whole entry): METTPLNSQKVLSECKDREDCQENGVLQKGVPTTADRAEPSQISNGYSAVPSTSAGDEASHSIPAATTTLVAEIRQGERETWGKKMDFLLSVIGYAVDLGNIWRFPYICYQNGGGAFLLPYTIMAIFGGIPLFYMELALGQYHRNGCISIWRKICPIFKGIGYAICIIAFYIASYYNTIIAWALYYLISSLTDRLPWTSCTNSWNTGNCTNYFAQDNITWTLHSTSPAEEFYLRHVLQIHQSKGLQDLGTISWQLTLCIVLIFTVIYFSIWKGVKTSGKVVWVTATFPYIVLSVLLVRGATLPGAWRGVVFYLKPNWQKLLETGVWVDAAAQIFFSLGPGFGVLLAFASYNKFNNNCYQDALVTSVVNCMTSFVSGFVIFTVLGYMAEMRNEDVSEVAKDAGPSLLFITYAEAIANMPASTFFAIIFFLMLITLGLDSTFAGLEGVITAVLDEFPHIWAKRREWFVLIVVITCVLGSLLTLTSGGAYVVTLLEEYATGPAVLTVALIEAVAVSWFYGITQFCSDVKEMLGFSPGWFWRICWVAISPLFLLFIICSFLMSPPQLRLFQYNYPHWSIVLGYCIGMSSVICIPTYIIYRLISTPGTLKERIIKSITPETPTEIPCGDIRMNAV
Text: In order to be able to carry out these in vitro studies, synaptosomes are freshly isolated from areas of the rat brain. […] For the NA reuptake these vesicular particles are isolated from the hypothalamus, and for the 5-HT reuptake from the medulla+pons region of male rat brains.
The IC50 values were obtained with the aid of the computer program “Figure P” (version 6.0, Biosoft, Cambridge, England). […] The computer program “Ligand” (version 4, Biosoft, England) was used to display KD values.

human μ-opiate receptor = biological target: T2, human μ-opiate receptor (Homo sapiens, UniProt P35372); assay: Affinity for the human μ-opiate receptor ([3H]-naloxone displacement, CHO-K1 membrane preparation, SPA); type: binding
T2 construct: purchased Perkin Elmer, Zaventem, Belgium RB-HOM; host or cells: CHO-K1 cells (recombinant expression)
T2 sequence (P35372 whole entry): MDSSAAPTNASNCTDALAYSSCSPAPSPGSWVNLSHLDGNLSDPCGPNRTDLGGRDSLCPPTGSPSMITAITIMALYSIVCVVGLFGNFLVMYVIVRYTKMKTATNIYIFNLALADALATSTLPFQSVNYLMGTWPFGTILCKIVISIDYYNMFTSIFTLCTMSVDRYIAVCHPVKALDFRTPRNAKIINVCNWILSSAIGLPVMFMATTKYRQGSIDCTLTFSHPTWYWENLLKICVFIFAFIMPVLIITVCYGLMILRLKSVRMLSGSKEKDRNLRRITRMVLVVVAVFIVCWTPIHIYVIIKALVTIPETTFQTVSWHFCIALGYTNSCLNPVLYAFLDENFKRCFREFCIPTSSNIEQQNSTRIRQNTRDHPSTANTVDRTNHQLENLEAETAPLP
Procedure: Investigation of the affinity for the human μ-opiate receptor The receptor affinity for the human μ-opiate receptor is determined in a homogeneous set-up in microtitre plates. For this, dilution series of the substances to be tested are incubated with a receptor membrane preparation (15-40 μg protein/250 μl incubation batch) of CHO-K1 cells which express the human μ-opiate receptor (RB-HOM receptor membrane preparation from Perkin Elmer, Zaventem, Belgium) in the presence of 1 nmol/l of the radioactive ligand [^3H]-naloxone (NET719, Perkin Elmer, Zaventem, Belgium) and 1 mg WGA-SPA-Beads (wheat germ agglutinin SPA beads from Amersham/Pharmacia, Freiburg, Germany) in a total volume of 250 μl for 90 minutes at room temperature. 50 mmol/l Tris-HCl supplemented with 0.05% sodium azide and with 0.06% bovine serum albumin is used as the incubation buffer. 25 μmol/l naloxone are additionally added for determination of the non-specific binding. After the end of the ninety-minute incubation time, the microtitre plates are centrifuged for 20 minutes at 1,000 g and the radioactivity is measured in a […] (Microbeta-Trilux, PerkinElmer Wallac, Freiburg, Germany). The percentage displacement of the radioactive ligand from its binding to the human μ-opiate receptor is determined at a concentration of the test substances of 1 μmol/l and stated as the percentage inhibition of the specific binding. Starting from the percentage displacement by various concentrations of the test substances, IC50 inhibitory concentrations which cause a 50 percent displacement of the radioactive ligand are calculated. By conversion by means of the Cheng-Prusoff relationship, Ki values for the test substances are obtained (Cheng and Prusoff 1973).

rats = assay: Elevated plus maze test on rats (onset of anxiolytic actions); type: in vivo, rat
Procedure: In the elevated plus maze test the actions of substances on the endogenous anxiety of rodents towards open and elevated places are determined.
The apparatus was placed approx. 1 m above the floor and comprised four arms arranged in a cross, two opposite arms being open and two closed. […] The duration of stay and the number of entries into the open arms were evaluated. The group size was 10-15 animals. The single administration of the test substances or of the control vehicle took place 30 min before testing.
It is reported in the literature that benzodiazepines induce an increased duration of stay and entries into the open compartment. […] The typical disadvantages of monoamine reuptake inhibitors in the therapy of anxiety patients, namely the delayed onset of action and the initially anxiogenic-like effects, can thus be followed in the elevated plus maze test on rats. The elevated plus maze test is therefore a suitable animal model for the investigation of new therapies which have the aim of accelerating the onset of action of monoamine reuptake inhibitors.
Statistical evaluation: Anova plus post-hoc Dunnett's test (Significance level: p<0.05; *: significant versus vehicle; #: significant versus intrinsic effect of 16 mg/kg i.p. 3-(2-dimethylaminomethyl-cyclohexyl)-phenol).

[1] = 1 mg/kg i.p., single administration
[2] = 8 mg/kg i.p., single administration 30 min before testing
[3] = 16 mg/kg i.p., single administration 30 min before testing
[4] = 2 mg/kg i.p., single administration

Compound | pKi (5-HT reuptake) | pKi (human μ-opiate receptor) | Open arms: Duration of stay (rats; [3]) | Open arms: Number of entries (rats; [3]) | anxiolytic action (in words) (rats; single administration) | duration of stay in the open arms (in words) (rats; single administration) | number of entries into the open arms (in words) (rats; single administration) | also measured
CN(C)CC1CCCCC1c1cccc(O)c1 (centres unmarked) [3-(2-Dimethylaminomethyl-cyclohexyl)-phenol, hydrochloride] | 7.30 | 6.85 |  |  |  |  |  | 
C=CCN1CC[C@]23c4c5ccc(O)c4O[C@H]2C(=O)CC[C@@]3(O)[C@H]1C5 [Naloxone] |  |  |  |  |  |  |  | Open arms: Duration of stay (rats; [1]): 28.6 s; Open arms: Number of entries (rats; [1]): 4.5
CN(C)CC1CCCCC1c1cccc(O)c1 (centres unmarked) [3-(2-Dimethylaminomethyl-cyclohexyl)-phenol] |  |  | 118.2* sec | 8.5 | significant anxiolytic actions | significant increase | clear increase | Open arms: Duration of stay (rats; [2]): 29.0 s; Open arms: Number of entries (rats; [2]): 3.2; anxiogenic-like action (in words) (rats; acute administration): In no case was an anxiogenic-like action induced; ratio between the μ-opioid component and the monoamine reuptake inhibition (in words) (human μ-opiate receptor; versus 5-HT and NA reuptake inhibition): balanced ratio
CNCC1CCCCC1c1cccc(O)c1 (centres unmarked) [3-(2-Methylaminomethyl-cyclohexyl)-phenol hydrochloride] | 5.25 | 6.06 |  |  |  |  |  | 
CN1C(=O)CN=C(c2ccccc2)c2cc(Cl)ccc21 [Diazepam] |  |  |  |  |  | increase | increase | Open arms: Duration of stay (rats; [4]): 77.7* sec; Open arms: Number of entries (rats; [4]): 8.1*
COc1ccc(C(CN(C)C)C2(O)CCCCC2)cc1 (centres unmarked) [Venlafaxine] |  |  | 66.9 s | 4.6 | no anxiolytic action |  |  | μ-Opioid receptor affinity (Ki values) (human μ-opiate receptor; [3H]-naloxone, CHO-K1 membranes): inactive
